System: 379773-124-R-J2-PDC spheroid viability
Assay: Anticancer human tumor 379773-124-R-J2-PDC patient-derived endometrial carcinoma cell line growth inhibition [POLQ]
Details: spheroids with HUVEC and MSC; for IC50: curve of first compound; for viability, T/C: stronger effect = lower value
Outline: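 PDC + HUVEC + MSC complex spheroids; POLQ inhibitors ± partner drugs; top conc. at/near clinical Cmax, else 10 microM (SN-38 1 microM), half-log dilutions; 37 degrees C, 5% CO2.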

[1] = second compound 0.0316 µM, first compound 0.0316 µM
[2] = second compound 0.0316 µM, first compound 0.1 µM
[3] = second compound 0.0316 µM, first compound 0.316 µM
[4] = second compound 0.0316 µM, first compound 1 µM
[5] = second compound 0.0316 µM, first compound 3.16 µM
[6] = second compound 0.0316 µM, first compound 10 µM
[7] = second compound 0.1 µM, first compound 0.0316 µM
[8] = second compound 0.1 µM, first compound 0.1 µM
[9] = second compound 0.1 µM, first compound 0.316 µM
[10] = second compound 0.1 µM, first compound 1 µM
[11] = second compound 0.1 µM, first compound 3.16 µM
[12] = second compound 0.1 µM, first compound 10 µM
[13] = second compound 0.316 µM, first compound 0.0316 µM
[14] = second compound 0.316 µM, first compound 0.1 µM
[15] = second compound 0.316 µM, first compound 0.316 µM
[16] = second compound 0.316 µM, first compound 1 µM
[17] = second compound 0.316 µM, first compound 3.16 µM
[18] = second compound 0.316 µM, first compound 10 µM
[19] = second compound 1 µM, first compound 0.0316 µM
[20] = second compound 1 µM, first compound 0.1 µM
[21] = second compound 1 µM, first compound 0.316 µM
[22] = second compound 1 µM, first compound 1 µM
[23] = second compound 1 µM, first compound 3.16 µM
[24] = second compound 1 µM, first compound 10 µM
[25] = second compound 3.16 µM, first compound 0.0316 µM
[26] = second compound 3.16 µM, first compound 0.1 µM
[27] = second compound 3.16 µM, first compound 0.316 µM
[28] = second compound 3.16 µM, first compound 1 µM
[29] = second compound 3.16 µM, first compound 3.16 µM
[30] = second compound 3.16 µM, first compound 10 µM
[31] = second compound 10 µM, first compound 0.0316 µM
[32] = second compound 10 µM, first compound 0.1 µM
[33] = second compound 10 µM, first compound 0.316 µM
[34] = second compound 10 µM, first compound 1 µM
[35] = second compound 10 µM, first compound 3.16 µM
[36] = second compound 10 µM, first compound 10 µM
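Also: spheroids exposed to drugs for seven days before readout.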
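For viability, T/C in this document: percent viability relative to DMSO vehicle control taken as 100%.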

Question: For CC1COCCN1c1cc(-c2ccnn2C)c2ccnc(-c3ccn[nH]3)c2n1 (stereo unspecified) + Cc1cccc(N(C)C(=O)C2C(O)CCN2c2nc(C)cc(C(F)(F)F)c2C#N)c1, which IC50 (second compound 0.0316 µM) is on record?
Answer: The IC50 was 99.4 nM.

Question: And the IC50 (second compound 0.1 µM)?
Answer: Its IC50 is 102 nM.

Question: What about the IC50 (second compound 0.316 µM) of the same molecule?
Answer: The IC50 was 84.7 nM.

Question: What about the IC50 (second compound 1 µM) of the same molecule?
Answer: Its IC50 is 74.2 nM.

Question: What about the IC50 (second compound 3.16 µM) of the same molecule?
Answer: Its IC50 is 102 nM.

Question: What about the IC50 (second compound 10 µM) of the same molecule?
Answer: The IC50 was 96.3 nM.

Question: And the viability, T/C [1]?
Answer: The viability, T/C was 81.4%.

Question: And the viability, T/C [2]?
Answer: The viability, T/C was 49.9%.

Question: And the viability, T/C [3]?
Answer: Its viability, T/C is 12.2%.

Question: What about the viability, T/C [4] of the same molecule?
Answer: Its viability, T/C is 10.4%.

Question: What about the viability, T/C [5] of the same molecule?
Answer: Its viability, T/C is 9.61%.

Question: And the viability, T/C [6]?
Answer: The viability, T/C was 5.75%.

Question: What about the viability, T/C [7] of the same molecule?
Answer: The viability, T/C was 83.7%.

Question: And the viability, T/C [8]?
Answer: The viability, T/C was 50.7%.

Question: And the viability, T/C [9]?
Answer: Its viability, T/C is 16.9%.

Question: What about the viability, T/C [10] of the same molecule?
Answer: Its viability, T/C is 10.2%.

Question: What about the viability, T/C [11] of the same molecule?
Answer: Its viability, T/C is 8.42%.

Question: What about the viability, T/C [12] of the same molecule?
Answer: The viability, T/C was 6.47%.

Question: What about the viability, T/C [13] of the same molecule?
Answer: Its viability, T/C is 79.4%.

Question: What about the viability, T/C [14] of the same molecule?
Answer: The viability, T/C was 45.1%.

Question: And the viability, T/C [15]?
Answer: The viability, T/C was 10.8%.

Question: What about the viability, T/C [16] of the same molecule?
Answer: The viability, T/C was 7.57%.

Question: And the viability, T/C [17]?
Answer: Its viability, T/C is 9.57%.

Question: What about the viability, T/C [18] of the same molecule?
Answer: The viability, T/C was 7.53%.

Question: And the viability, T/C [19]?
Answer: The viability, T/C was 76.5%.

Question: What about the viability, T/C [20] of the same molecule?
Answer: Its viability, T/C is 40.7%.

Question: What about the viability, T/C [21] of the same molecule?
Answer: Its viability, T/C is 13.5%.

Question: And the viability, T/C [22]?
Answer: Its viability, T/C is 8.7%.

Question: And the viability, T/C [23]?
Answer: The viability, T/C was 8.89%.

Question: And the viability, T/C [24]?
Answer: The viability, T/C was 6.67%.

Question: And the viability, T/C [25]?
Answer: Its viability, T/C is 76.9%.

Question: And the viability, T/C [26]?
Answer: The viability, T/C was 50.7%.

Question: What about the viability, T/C [27] of the same molecule?
Answer: The viability, T/C was 14%.

Question: And the viability, T/C [28]?
Answer: The viability, T/C was 9.29%.

Question: What about the viability, T/C [29] of the same molecule?
Answer: The viability, T/C was 8.28%.

Question: And the viability, T/C [30]?
Answer: The viability, T/C was 6.05%.

Question: What about the viability, T/C [31] of the same molecule?
Answer: The viability, T/C was 70.5%.

Question: And the viability, T/C [32]?
Answer: The viability, T/C was 49.3%.

Question: And the viability, T/C [33]?
Answer: The viability, T/C was 14%.

Question: And the viability, T/C [34]?
Answer: The viability, T/C was 9.57%.

Question: And the viability, T/C [35]?
Answer: Its viability, T/C is 9.04%.

Question: What about the viability, T/C [36] of the same molecule?
Answer: The viability, T/C was 5.97%.

Question: What does the source list for CC1COCCN1c1cc(C2(S(C)(=N)=O)CC2)nc(-c2ccnc3[nH]ccc23)n1 (stereo unspecified) + Cc1cccc(N(C)C(=O)C2C(O)CCN2c2nc(C)cc(C(F)(F)F)c2C#N)c1?
Answer: IC50 (second compound 0.0316 µM): 2060 nM; IC50 (second compound 0.1 µM): 1870 nM; IC50 (second compound 0.316 µM): 1970 nM; IC50 (second compound 1 µM): 1840 nM; IC50 (second compound 3.16 µM): 2030 nM; IC50 (second compound 10 µM): 1630 nM; viability, T/C [1]: 83.3%; viability, T/C [2]: 84.7%; viability, T/C [3]: 81.1%; viability, T/C [4]: 77%; viability, T/C [5]: 34.2%; viability, T/C [6]: 5.98%; viability, T/C [7]: 89.4%; viability, T/C [8]: 91.2%; viability, T/C [9]: 79.7%; viability, T/C [10]: 81.5%; viability, T/C [11]: 23.9%; viability, T/C [12]: 5.96%; viability, T/C [13]: 87.1%; viability, T/C [14]: 97%; viability, T/C [15]: 80.1%; viability, T/C [16]: 78.6%; viability, T/C [17]: 30.6%; viability, T/C [18]: 8.62%; viability, T/C [19]: 81.4%; viability, T/C [20]: 78.8%; viability, T/C [21]: 79.8%; viability, T/C [22]: 69.4%; viability, T/C [23]: 32.7%; viability, T/C [24]: 6.64%; viability, T/C [25]: 84.4%; viability, T/C [26]: 88.7%; viability, T/C [27]: 79.2%; viability, T/C [28]: 61.8%; viability, T/C [29]: 42.2%; viability, T/C [30]: 7.75%; viability, T/C [31]: 84.6%; viability, T/C [32]: 73.3%; viability, T/C [33]: 79.2%; viability, T/C [34]: 62.5%; viability, T/C [35]: 32.2%; viability, T/C [36]: 8.39%

Question: What does the source list for Cn1ncnc1[C@H]1c2n[nH]c(=O)c3cc(F)cc(c23)N[C@@H]1c1ccc(F)cc1 + Cc1cccc(N(C)C(=O)C2C(O)CCN2c2nc(C)cc(C(F)(F)F)c2C#N)c1?
Answer: IC50 (second compound 0.0316 µM): > 100 nM; IC50 (second compound 0.1 µM): > 100 nM; IC50 (second compound 0.316 µM): > 100 nM; IC50 (second compound 1 µM): > 100 nM; IC50 (second compound 3.16 µM): 90.1 nM; IC50 (second compound 10 µM): > 100 nM; viability, T/C (second compound 0.0316 µM, first compound 0.000316 µM): 79.1%; viability, T/C (second compound 0.0316 µM, first compound 0.001 µM): 78.9%; viability, T/C (second compound 0.0316 µM, first compound 0.00316 µM): 74.5%; viability, T/C (second compound 0.0316 µM, first compound 0.01 µM): 89.8%; viability, T/C [1]: 67.8%; viability, T/C [2]: 60.8%; viability, T/C (second compound 0.1 µM, first compound 0.000316 µM): 86.3%; viability, T/C (second compound 0.1 µM, first compound 0.001 µM): 77.2%; viability, T/C (second compound 0.1 µM, first compound 0.00316 µM): 90.2%; viability, T/C (second compound 0.1 µM, first compound 0.01 µM): 82.8%; viability, T/C [7]: 61.5%; viability, T/C [8]: 55.6%; viability, T/C (second compound 0.316 µM, first compound 0.000316 µM): 85.7%; viability, T/C (second compound 0.316 µM, first compound 0.001 µM): 79.7%; viability, T/C (second compound 0.316 µM, first compound 0.00316 µM): 74.2%; viability, T/C (second compound 0.316 µM, first compound 0.01 µM): 73.6%; viability, T/C [13]: 82.8%; viability, T/C [14]: 55.5%; viability, T/C (second compound 1 µM, first compound 0.000316 µM): 76.8%; viability, T/C (second compound 1 µM, first compound 0.001 µM): 87.3%; viability, T/C (second compound 1 µM, first compound 0.00316 µM): 75.8%; viability, T/C (second compound 1 µM, first compound 0.01 µM): 76.7%; viability, T/C [19]: 65.6%; viability, T/C [20]: 60.6%; viability, T/C (second compound 3.16 µM, first compound 0.000316 µM): 74.9%; viability, T/C (second compound 3.16 µM, first compound 0.001 µM): 83.3%; viability, T/C (second compound 3.16 µM, first compound 0.00316 µM): 67.6%; viability, T/C (second compound 3.16 µM, first compound 0.01 µM): 84.2%; viability, T/C [25]: 70.2%; viability, T/C [26]: 47.8%; viability, T/C (second compound 10 µM, first compound 0.000316 µM): 76.8%; viability, T/C (second compound 10 µM, first compound 0.001 µM): 78%; viability, T/C (second compound 10 µM, first compound 0.00316 µM): 74.7%; viability, T/C (second compound 10 µM, first compound 0.01 µM): 70.5%; viability, T/C [31]: 62.7%; viability, T/C [32]: 54.1%

— PubChem BioAssay AID1963848 (Molecular Pharmacology Branch, DTP, NCI, 2024)
